Measurements taken from patent publication US20190144375A1, “NOVEL CARBOCYCLIC COMPOUNDS AS ROR GAMMA MODULATORS” (Glenmark Pharmaceuticals S.A., priority 2015, published 2019).

Target: T1, GST-tagged ROR gamma ligand binding domain (LBD) (Homo sapiens, UniProt P51449)
T1 construct: purchased Invitrogen
T1 sequence (P51449 269-508 limits assumed): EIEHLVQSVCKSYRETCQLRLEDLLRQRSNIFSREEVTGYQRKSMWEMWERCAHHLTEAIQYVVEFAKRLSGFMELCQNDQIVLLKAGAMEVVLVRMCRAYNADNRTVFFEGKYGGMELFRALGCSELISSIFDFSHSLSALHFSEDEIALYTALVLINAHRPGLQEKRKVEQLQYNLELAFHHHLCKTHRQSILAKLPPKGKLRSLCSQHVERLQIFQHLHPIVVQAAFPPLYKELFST
Assay: TR-FRET assay for ROR gamma (LanthaScreen, Fluorescein-D22 co-activator peptide recruitment)
Assay type: biochemical
Details: for inhibition at 1 µM: 1 μM compound; for inhibition at 1 µM / inhibition at 10 µM: TR-FRET ratio 520/495; for inhibition at 10 µM: 10 μM compound; for IC50: dose response curve, class symbols
From the text: The compounds described herein were screened for ROR gamma modulator activity using the TR-FRET assay (LanthaScreen™ available from Invitrogen of Carlsbad, Calif.) as described in JBC 2011, 286, 26: 22707-10; and Drug Metabolism and Disposition 2009, 37, 10: 2069-78.
The assay is based on the principle that binding of the agonist to the ROR gamma causes a conformational change around helix 12 in the ligand binding domain, resulting in higher affinity for the co-activator peptide. ROR gamma being constitutively active, the Fluorescein-D22 co-activator peptide used in the assay is recruited in the absence of a ligand. Binding of the co-activator peptide, causes an increase in the TR-FRET signal while binding of an antagonist decreases the recruitment of the co-activator peptide, causing a decrease in the TR-FRET signal compared to control with no compound. The assay was performed using a two-step procedure, pre-incubation step with the compound followed by the detection step on addition of the anti-GST tagged terbium (Tb) and fluorescein tagged fluorophores as the acceptor.
Test compounds or reference compounds such as T0901317 (Calbiochem) were dissolved in dimethylsulfoxide (DMSO) to prepare 10.0 mM stock solutions and diluted to the desired concentration. The final concentration of DMSO in the reaction was 4% (v/v). The assay mixture was prepared by mixing 10 nM of the GST-tagged ROR gamma ligand binding domain (LBD) in the assay buffer containing 25 mM HEPES, 100 mM NaCl, 5 mM DTT and 0.01% BSA with or without the desired concentration of the compound. The reaction was incubated at 22° C. for 1 hour. The pre-incubation step was terminated by addition of the detection mixture containing 300 nM Fluorescein-D22 co-activator peptide and 10 nM lantha screen Tb-anti GST antibody into the reaction mixture. After shaking for 5 minutes the reaction was further incubated for 1 hour at room temperature and read […] on an Infinite F500 reader as per the kit instructions (Invitrogen). The inhibition of test compound was calculated based on the TR-FRET ratio of 520/495. The activity was calculated as a percent of control reaction. IC50 values were calculated from dose response curve by nonlinear regression analysis using GraphPad Prism software.
Percentage inhibition at concentrations of 1.0 μM and 10.0 μM are given in the table along with IC50 (nM) details for selected examples.

SMILES | inhibition at 1 µM [%] | inhibition at 10 µM [%] | IC50 [nM]
CCC(F)(F)c1ccc(CC(=O)Nc2ccc(C(=O)N(C)c3cc(C)cc(-c4ccccc4F)c3)cc2)cc1 [Example 13] | 87.5 | 90.6 | 50 to 100
CC(O)C(F)(F)c1ccc(CC(=O)Nc2ccc(C(=O)N(C)c3cccc(Cl)c3F)cc2)cc1 (stereo not drawn) [Example 26] | 86.4 | 93.2 | < 50
Cc1cc(C)c(N(C)C(=O)c2ccc(NC(=O)Cc3ccc(C(F)(F)C(C)O)cc3)cc2)c(Cl)c1 (stereo not drawn) [Example 33] | 86.8 | 90.2 | < 50
CC(O)C(F)(F)c1ccc(CC(=O)Nc2ccc(C(=O)N(C)c3cc(C4CC4)ccc3Cl)cc2)cc1 (stereo not drawn) [Example 40] | 90.8 | 94.3 | < 50
CN(C(=O)c1ccc(NC(=O)Cc2ccc(C(F)(F)CO)cc2)cc1)c1ccc(Cl)cc1 [Example 3, N-(4-chlorophenyl)-4-(2-(4-(1,1-difluoro-2-hydroxyethyl)phenyl)acetamido)-N-methylbenzamide] | 75 | 85.8 | > 100
COCC(F)(F)c1ccc(CC(=O)Nc2ccc(C(=O)N(C)[C@H](C)c3ccc(Cl)cc3)cc2)cc1 [Example 16] | 84.5 | 93.7 | > 100
CCC(F)(F)c1ccc(CC(=O)Nc2ccc(C(=O)N(C)c3cc(Cl)ccc3Cl)cc2)cc1 [Example 4] | 88.5 | 91.1 | < 50
